Tests used:
[1] = system: Protein kinase C, as a mixture of isozymes; assay: PKC activity assay, 32P transfer from [γ-32P]ATP to histone III-S; assay type: biochemical, rat; settings: for inhibition at 10 μM: 10 μM inhibitor; for IC50: histone III-S substrate, 15 min, three trials per concentration
From the text: In practicing various aspects of the present invention, compounds in accordance with the invention can be tested for a biological activity of interest using any assay protocol that is predictive of activity in vivo. For example, a variety of convenient assay protocols are available that are generally predictive of PKC inhibitory activity in vivo. In one approach, PKC inhibitory activity can be assessed using the PKC assay described in Example 9 (also described by Toullec et al. (1991) J. Biol. Chem. 266:15771). In that assay, the PKC was derived, as a mixture of isozymes, from rat brains, and activity was determined by incorporation of ^32P radiolabeled phosphate, derived from [γ-^32P]-ATP, onto a PKC substrate. Another assay for assessing PKC inhibitory activity is described in Example 10; see also U.S. Patent Application Publication No. 2002/0137789 A1 to Wender et al. In this assay, Ki values are determined for potential inhibitors based on competition with radiolabeled phorbol 12,13-dibutyrate for binding to a mixture of PKC isozymes.
Materials used: Phosphatidyl serine and 1,2 sn-dioleylglycerol were obtained from Serdary Research Laboratories. Protein kinase C, as a mixture of isozymes, was obtained in isolated and purified form from Prof. Daria Mochley-Rosen and Tamar Lion (Stanford University, Department of Molecular Pharmacology).
PKC activity was assayed by measuring ^32Pi transferred from [γ-^32P]ATP to histone III-S (Sigma). The reaction mixture (100 μL) included 20 mM Tris-HCl (pH 7.5) (30 μL), 10 mM CaCl2 in 20 mM Tris-HCl (10 μL), a sonicated suspension of 2.4 mg/mL phosphatidylserine and 80 μg/mL 1,2-diacylglycerol in 20 mM Tris-HCl (10 μL), a PKC preparation of 4.5 mg/mL total PKC with 5–9 U activity/mL relative to histone III-S (10 μL), a solution of 0.35 mg/mL histone III-S (Sigma) in 20 mM Tris-HCl (10 μL), and a solution of the inhibitor at various concentrations in 20 mM Tris-HCl containing <1% DMSO (10 μL). The reaction was started by the addition of a solution containing 27 μL of 3.75 mM ATP (non-radiolabeled), 100 μL 1.0 M MgCl2, and 1.3 μL of […] [γ-^32P]ATP, and 872 μL of 20 mM Tris-HCl (pH 7.5) (20 μL). After 15 min, the reaction was stopped by the addition of 30 μL of 200 mM EDTA and 200 mM ATP (non-radiolabeled). The reaction mixture was adsorbed onto phosphocellulose paper squares (Whatman P81), and allowed to dry for 5 min. The phosphocellulose paper squares were then washed with EtOH (3×1 min). The total protein phosphorylation was quantitated by scintillation counting. Counts per minute were averaged among three trials at each concentration.

[2] = system: five of the PKC isoforms; settings: cited from earlier work
[3] = system: PKC; settings: Tamaoki et al. (1986); cited from earlier work

| Compound | melting point | inhibition at 10 μM [1] | IC50 [1] | IC50 [2] | IC50 [3] |
| --- | --- | --- | --- | --- | --- |
| CN1C(=O)c2c3c(c4[nH]c5ccccc5c4c2C1=O)CCC(=O)CC3 [Compound 10] | 309 to 310 °C (dec.) | ^A36% inhibition at 10 μM | > 10 µM | – | – |
| O=C1CCc2c3c(c4c([nH]c5ccccc54)c2CC1)C(=O)NC3=O [Compound 11] | – | – | 3.6 µM | – | – |
| O=C1NC(=O)c2c1c1c(c3[nH]c4ccccc4c23)CCC(O)CC1 (stereo not drawn) [Compound 12] | – | – | 4.5 µM | – | – |
| CN1C(=O)c2c3c(c4c(c2C1=O)c1ccccc1n4CCCNC(=O)OC(C)(C)C)CCC(O)CC3 (stereo not drawn) [Compound 14] | – | ^B40% inhibition at 10 μM | > 10 µM | – | – |
| CN[C@H]1CC2(C)OC(C)([C@H]1OC)n1c3ccccc3c3c4c(c5c6ccccc6n2c5c31)C(=O)NC4 (stereo partly drawn) [Staurosporin] | – | – | – | < 0.01 µM | 0.0027 µM |
